Data on 3 compounds can be found in ChEMBL document CHEMBL1138016, “Azaadamantane benzamide 5-HT4 agonists: gastrointestinal prokinetic SC-54750” (Bioorg Med Chem Lett, 2004).

For assay [1], the target named is Serotonin 2 (5-HT2) receptor (Homo sapiens, UniProt P41595+P28223+P28335). The assay is classed as protein assay.
Assay [2] deals with T1, Serotonin 3 (5-HT3) receptor (Rattus norvegicus, UniProt P35563+Q9JJ16).
T1 sequence (P35563 whole entry): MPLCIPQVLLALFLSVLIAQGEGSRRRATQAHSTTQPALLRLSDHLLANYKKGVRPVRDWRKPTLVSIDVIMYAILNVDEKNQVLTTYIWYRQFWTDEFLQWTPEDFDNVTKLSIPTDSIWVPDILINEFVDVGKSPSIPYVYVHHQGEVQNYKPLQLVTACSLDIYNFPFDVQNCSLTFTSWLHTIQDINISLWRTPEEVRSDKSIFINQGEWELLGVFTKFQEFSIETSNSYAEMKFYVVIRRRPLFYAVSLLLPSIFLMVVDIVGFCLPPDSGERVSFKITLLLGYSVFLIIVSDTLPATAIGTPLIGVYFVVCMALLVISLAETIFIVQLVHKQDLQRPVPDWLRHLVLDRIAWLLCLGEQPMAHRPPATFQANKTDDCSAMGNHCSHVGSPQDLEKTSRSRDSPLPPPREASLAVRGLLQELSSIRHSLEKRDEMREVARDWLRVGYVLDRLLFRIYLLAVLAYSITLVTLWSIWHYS
T1 sequence (Q9JJ16 whole entry): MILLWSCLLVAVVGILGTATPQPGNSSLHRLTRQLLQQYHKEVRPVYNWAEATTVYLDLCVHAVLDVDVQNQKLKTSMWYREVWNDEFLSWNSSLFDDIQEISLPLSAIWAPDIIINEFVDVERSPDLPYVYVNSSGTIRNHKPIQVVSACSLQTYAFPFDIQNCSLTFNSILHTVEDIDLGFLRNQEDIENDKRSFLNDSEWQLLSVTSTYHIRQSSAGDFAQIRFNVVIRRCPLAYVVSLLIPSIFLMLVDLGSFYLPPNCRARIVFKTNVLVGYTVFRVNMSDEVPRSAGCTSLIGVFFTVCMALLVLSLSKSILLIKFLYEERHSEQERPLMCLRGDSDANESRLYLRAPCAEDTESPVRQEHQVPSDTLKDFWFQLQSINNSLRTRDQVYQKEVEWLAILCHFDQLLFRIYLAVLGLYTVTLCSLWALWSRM
Nature of the assay: Binding affinity towards 5-hydroxytryptamine 3 receptor using [3H]GR-65630 as the radioligand in male rat cortical tissue. The assay is classed as protein-complex assay.

Assay [3] deals with T2, Adrenergic receptor alpha-1 (Homo sapiens, UniProt P35348+P25100+P35368).
T2 sequence (P35348 whole entry): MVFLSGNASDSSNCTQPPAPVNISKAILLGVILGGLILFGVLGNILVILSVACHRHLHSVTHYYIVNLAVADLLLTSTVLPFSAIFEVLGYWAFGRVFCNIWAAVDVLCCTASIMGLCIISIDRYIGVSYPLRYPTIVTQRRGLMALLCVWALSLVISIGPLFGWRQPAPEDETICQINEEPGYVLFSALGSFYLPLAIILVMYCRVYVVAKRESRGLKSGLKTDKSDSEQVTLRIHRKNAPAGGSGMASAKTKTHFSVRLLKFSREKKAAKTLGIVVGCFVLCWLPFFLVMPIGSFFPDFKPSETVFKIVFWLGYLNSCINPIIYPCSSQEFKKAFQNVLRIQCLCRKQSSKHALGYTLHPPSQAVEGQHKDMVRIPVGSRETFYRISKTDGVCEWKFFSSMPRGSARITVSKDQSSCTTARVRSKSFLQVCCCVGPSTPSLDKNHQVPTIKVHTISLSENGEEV
T2 sequence (P25100 whole entry): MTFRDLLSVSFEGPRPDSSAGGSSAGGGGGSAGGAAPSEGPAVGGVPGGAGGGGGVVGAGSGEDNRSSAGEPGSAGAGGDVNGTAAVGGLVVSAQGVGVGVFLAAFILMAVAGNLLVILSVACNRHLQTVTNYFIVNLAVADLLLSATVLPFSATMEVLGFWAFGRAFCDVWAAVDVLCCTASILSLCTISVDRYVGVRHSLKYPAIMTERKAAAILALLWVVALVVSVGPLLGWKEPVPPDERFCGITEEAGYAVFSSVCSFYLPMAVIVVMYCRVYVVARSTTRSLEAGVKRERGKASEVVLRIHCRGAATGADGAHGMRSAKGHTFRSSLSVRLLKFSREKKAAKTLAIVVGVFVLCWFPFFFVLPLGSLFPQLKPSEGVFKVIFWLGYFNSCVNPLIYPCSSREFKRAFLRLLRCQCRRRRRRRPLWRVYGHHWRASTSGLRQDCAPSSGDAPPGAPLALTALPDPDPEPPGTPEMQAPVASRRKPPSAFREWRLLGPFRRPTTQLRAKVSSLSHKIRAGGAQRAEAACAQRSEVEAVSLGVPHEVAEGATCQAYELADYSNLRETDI
T2 sequence (P35368 whole entry): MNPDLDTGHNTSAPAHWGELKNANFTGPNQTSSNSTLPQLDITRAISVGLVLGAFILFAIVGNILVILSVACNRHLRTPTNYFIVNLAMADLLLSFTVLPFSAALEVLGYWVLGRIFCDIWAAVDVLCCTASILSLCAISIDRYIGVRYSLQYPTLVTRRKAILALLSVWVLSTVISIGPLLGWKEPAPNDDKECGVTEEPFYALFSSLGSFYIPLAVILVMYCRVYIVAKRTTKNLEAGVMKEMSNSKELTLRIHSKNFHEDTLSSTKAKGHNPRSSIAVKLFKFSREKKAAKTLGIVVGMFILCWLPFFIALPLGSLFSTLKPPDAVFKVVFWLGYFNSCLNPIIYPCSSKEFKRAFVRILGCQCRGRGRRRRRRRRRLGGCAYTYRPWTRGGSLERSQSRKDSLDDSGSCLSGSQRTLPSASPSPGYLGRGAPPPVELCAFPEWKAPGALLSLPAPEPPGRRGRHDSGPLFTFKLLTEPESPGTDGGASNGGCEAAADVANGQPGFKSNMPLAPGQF
Nature of the assay: Concentration required for inhibition of alpha-1 adrenergic receptor using [3H]prazosin as the radioligand. The format is protein assay.

By IC50 is commonly meant the concentration that inhibits the measured activity by half. Low readings indicate greater potency in that assay, high ones weaker potency in that assay. For orientation: Ki means the equilibrium dissociation constant of an inhibitor or competing ligand from its target. High values mean a looser hold on the target, low ones a stronger hold on the target. On to `COc1cc(N)c(Cl)cc1C(=O)NC1C2CC3CC1CN(C3)C2` (stereo in doubt; 9a), for which the IC50 was 1.8 µM in assay [1] and over 10 µM in assay [3]. In addition, the affinity in assay [2] corresponds to a Ki of 0.336 µM.
Regarding `COc1cc(N)c(Cl)cc1C(=O)NC1C2CC3CC1CN(C3)C2` (stereo in doubt; 9b), the IC50 in assay [1] and in assay [3] was over 10 µM in each case. The Ki in assay [2] came to 0.009 µM.
For `COc1cc(N)c(Cl)cc1C(=O)NCC1C2CC3CC1CN(C3)C2` (stereo in doubt; 9c), the IC50 in assay [1] and in assay [3] was over 10 µM in each case. In assay [2], this compound returned an inhibition constant Ki of 0.0254 µM.
